The values below come from the supplement of paper PMC10307832.

Common to all, as to test: relative viability (nuclei count vs DMSO), 5 days (fraction); higher = more cells survive
Compound in experiment [1]: COc1cc(N2CCC(N3CCN(C)CC3)CC2)ccc1Nc1ncc(Cl)c(Nc2ccccc2S(=O)(=O)C(C)C)n1 [NVP-TAE684] + CC(=O)c1c(C)c2cnc(Nc3ccc(N4CCNCC4)cn3)nc2n(C2CCCC2)c1=O [Palbociclib] (partner 0.5 µM)
Put shortly: (§1)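 Lung cancer cell lines in 1536-well plates were dosed by pin tool the day after seeding, either with one drug alone or with a fixed anchor-drug dose plus five library-drug doses (not always all listed) in √10 steps. After 5 days, cells were fixed and their nuclei stained in one step (final 0.05% Triton X-100, 1% formaldehyde, 1 ug/ml Hoechst), then counted on 4× images. Relative viability is the nuclei count in treated wells divided by that in vehicle wells. Values are medians of duplicate plates.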

Compound in experiment [2]: COc1cc(N2CCC(N3CCN(C)CC3)CC2)ccc1Nc1ncc(Cl)c(Nc2ccccc2S(=O)(=O)C(C)C)n1 [NVP-TAE684] + CC(C)C[C@H](NC(=O)[C@H](Cc1ccccc1)NC(=O)c1cnccn1)B(O)O [Bortezomib] (partner 0.002 µM)
In outline: as §1

Compound in experiment [3]: COc1cc(N2CCC(N3CCN(C)CC3)CC2)ccc1Nc1ncc(Cl)c(Nc2ccccc2S(=O)(=O)C(C)C)n1 [NVP-TAE684] + C[C@@H](Oc1cc(-c2cnn(C3CCNCC3)c2)cnc1N)c1c(Cl)ccc(F)c1Cl [Crizotinib] (partner 1 µM)
Put shortly: as §1

Compound in experiment [4]: COc1cc2/c(=N/c3ccc(Br)cc3F)nc[nH]c2cc1OCC1CCN(C)CC1 [Vandetanib] + CC(C)C[C@H](NC(=O)[C@H](Cc1ccccc1)NC(=O)c1cnccn1)B(O)O [Bortezomib] (partner 0.002 µM)
Put shortly:
as §1

Compound in experiment [5]: COc1cc2/c(=N/c3ccc(Br)cc3F)nc[nH]c2cc1OCC1CCN(C)CC1 [Vandetanib] + COc1cccc2cc(-c3nc([C@H]4CC[C@H](C(=O)O)CC4)n4ncnc(N)c34)[nH]c12 [OSI-027] (partner 0.5 µM)
Put shortly:
as §1

Take NCI-H1792: the relative viability worked out at 0.606 in experiment [1] (first compound 0.2 µM); 0.615 in experiment [1] (first compound 0.6325 µM); 0.648 in experiment [1] (first compound 2 µM); 0.779 in experiment [2] (first compound 0.2 µM); 0.967 in experiment [2] (first compound 0.6325 µM); 0.819 in experiment [2] (first compound 2 µM). For the same cell line, the relative viability in experiment [3] (first compound 0.2 µM) came out at 1.06; in experiment [3] (first compound 0.6325 µM), 0.966; in experiment [3] (first compound 2 µM) it was 0.954; in experiment [4] (first compound 0.02 µM) it was 0.994; in experiment [4] (first compound 0.06325 µM), 0.926; in experiment [4] (first compound 0.2 µM), 0.914. Further, the relative viability in experiment [4] (first compound 0.6325 µM) stood at 0.865; in experiment [4] (first compound 2 µM) it was 0.887; in experiment [5] (first compound 0.02 µM), 0.761; in experiment [5] (first compound 0.06325 µM), 0.715; in experiment [5] (first compound 0.2 µM), 0.784; in experiment [5] (first compound 0.6325 µM), 0.751. Also, the relative viability in experiment [5] (first compound 2 µM) worked out at 0.63.

Take NCI-H1299: the relative viability in experiment [2] (first compound 0.2 µM) is 1.03; in experiment [2] (first compound 0.6325 µM), 1.02; in experiment [2] (first compound 2 µM), 1.06; in experiment [3] (first compound 0.2 µM), 1.01; in experiment [3] (first compound 0.6325 µM), 0.959; in experiment [3] (first compound 2 µM), 0.623. Further, the relative viability in experiment [4] (first compound 0.02 µM) is 0.997; in experiment [4] (first compound 0.06325 µM) it was 0.976; in experiment [4] (first compound 0.2 µM), 1.02; in experiment [4] (first compound 0.6325 µM), 1.05; in experiment [4] (first compound 2 µM) it was 1.04.

With HCC-366, the relative viability in experiment [1] (first compound 0.2 µM) was 0.352; in experiment [1] (first compound 0.6325 µM), 0.4; in experiment [1] (first compound 2 µM), 0.166; in experiment [2] (first compound 0.2 µM), 0.855; in experiment [2] (first compound 0.6325 µM), 1.08; in experiment [2] (first compound 2 µM), 1.17. The relative viability in experiment [3] (first compound 0.2 µM) came to 0.923; in experiment [3] (first compound 0.6325 µM), 0.648; in experiment [3] (first compound 2 µM) it was 0.226; in experiment [4] (first compound 0.02 µM), 1.05; in experiment [4] (first compound 0.06325 µM), 0.983; in experiment [4] (first compound 0.2 µM) it was 0.867. Further, the relative viability in experiment [4] (first compound 0.6325 µM) was 0.909; in experiment [4] (first compound 2 µM) it was 1.02; in experiment [5] (first compound 0.02 µM) it was 0.807; in experiment [5] (first compound 0.06325 µM), 0.876; in experiment [5] (first compound 0.2 µM) it was 0.978; in experiment [5] (first compound 0.6325 µM), 0.824. For the same cell line, in experiment [5] (first compound 2 µM), the relative viability amounted to 0.948.

Regarding NCI-H1437, the relative viability was 0.321 in experiment [1] (first compound 0.2 µM); 0.291 in experiment [1] (first compound 0.6325 µM); 0.231 in experiment [1] (first compound 2 µM); 0.452 in experiment [2] (first compound 0.2 µM); 0.487 in experiment [2] (first compound 0.6325 µM); 0.322 in experiment [2] (first compound 2 µM). In addition, the relative viability was determined as 0.818 in experiment [3] (first compound 0.2 µM); 1.06 in experiment [3] (first compound 0.6325 µM); 0.795 in experiment [3] (first compound 2 µM); 0.486 in experiment [4] (first compound 0.02 µM); 0.56 in experiment [4] (first compound 0.06325 µM); 0.47 in experiment [4] (first compound 0.2 µM). The relative viability came to 0.506 in experiment [4] (first compound 0.6325 µM); 0.398 in experiment [4] (first compound 2 µM); 0.835 in experiment [5] (first compound 0.02 µM); 0.899 in experiment [5] (first compound 0.06325 µM); 0.868 in experiment [5] (first compound 0.2 µM); 0.886 in experiment [5] (first compound 0.6325 µM). In experiment [5] (first compound 2 µM), the relative viability amounted to 0.964.

With EPLC-272H, the relative viability came out at 0.324 in experiment [1] (first compound 0.2 µM); 0.321 in experiment [1] (first compound 0.6325 µM); 0.27 in experiment [1] (first compound 2 µM); 1.23 in experiment [2] (first compound 0.2 µM); 0.66 in experiment [2] (first compound 2 µM); 0.898 in experiment [3] (first compound 0.2 µM). The relative viability in experiment [3] (first compound 2 µM) is 0.873; in experiment [4] (first compound 0.02 µM), 0.983; in experiment [4] (first compound 0.06325 µM), 0.764; in experiment [4] (first compound 0.2 µM) it was 0.892; in experiment [4] (first compound 0.6325 µM), 0.995; in experiment [4] (first compound 2 µM), 0.909. The relative viability stood at 0.319 in experiment [5] (first compound 0.02 µM), 0.305 in experiment [5] (first compound 0.2 µM), 0.286 in experiment [5] (first compound 0.6325 µM) and 0.265 in experiment [5] (first compound 2 µM).

As for NCI-H1703, the relative viability in experiment [2] (first compound 0.2 µM) is 0.315; in experiment [2] (first compound 0.6325 µM) it was 0.275; in experiment [2] (first compound 2 µM), 0.129; in experiment [3] (first compound 0.2 µM), 0.743; in experiment [3] (first compound 0.6325 µM), 0.516; in experiment [3] (first compound 2 µM), 0.144. Further, the relative viability came out at 0.379 in experiment [4] (first compound 0.02 µM), 0.374 in experiment [4] (first compound 0.2 µM), 0.31 in experiment [4] (first compound 0.6325 µM) and 0.245 in experiment [4] (first compound 2 µM).

HCC-15: the relative viability in experiment [1] (first compound 0.2 µM) amounted to 0.63; in experiment [1] (first compound 0.6325 µM), 0.7; in experiment [1] (first compound 2 µM), 0.587; in experiment [2] (first compound 0.2 µM) it was 0.916; in experiment [2] (first compound 0.6325 µM), 1.07; in experiment [2] (first compound 2 µM), 1. The relative viability in experiment [3] (first compound 0.2 µM) came out at 0.806; in experiment [3] (first compound 0.6325 µM), 0.792; in experiment [3] (first compound 2 µM) it was 0.319; in experiment [4] (first compound 0.02 µM), 1.03; in experiment [4] (first compound 0.06325 µM) it was 0.962; in experiment [4] (first compound 0.2 µM) it was 0.956. Besides, the relative viability in experiment [4] (first compound 0.6325 µM) amounted to 1.08; in experiment [4] (first compound 2 µM), 1.08; in experiment [5] (first compound 0.02 µM), 0.75; in experiment [5] (first compound 0.06325 µM) it was 0.638; in experiment [5] (first compound 0.2 µM), 0.668; in experiment [5] (first compound 0.6325 µM), 0.682. Besides, in experiment [5] (first compound 2 µM), the relative viability was 0.537.

For SK-MES-1, the relative viability in experiment [1] (first compound 0.2 µM) was determined as 0.347; in experiment [1] (first compound 0.6325 µM), 0.313; in experiment [1] (first compound 2 µM), 0.296; in experiment [3] (first compound 0.6325 µM), 0.983; in experiment [3] (first compound 2 µM), 0.804; in experiment [5] (first compound 0.02 µM), 0.678. In addition, the relative viability amounted to 0.559 in experiment [5] (first compound 0.06325 µM), 0.691 in experiment [5] (first compound 0.2 µM), 0.618 in experiment [5] (first compound 0.6325 µM) and 0.448 in experiment [5] (first compound 2 µM).
